This experiment concerns the target T1, Human HPK1, catalytic domain (Homo sapiens, UniProt Q92918).
T1 construct: purchased Carna
T1 sequence (Q92918 1-346): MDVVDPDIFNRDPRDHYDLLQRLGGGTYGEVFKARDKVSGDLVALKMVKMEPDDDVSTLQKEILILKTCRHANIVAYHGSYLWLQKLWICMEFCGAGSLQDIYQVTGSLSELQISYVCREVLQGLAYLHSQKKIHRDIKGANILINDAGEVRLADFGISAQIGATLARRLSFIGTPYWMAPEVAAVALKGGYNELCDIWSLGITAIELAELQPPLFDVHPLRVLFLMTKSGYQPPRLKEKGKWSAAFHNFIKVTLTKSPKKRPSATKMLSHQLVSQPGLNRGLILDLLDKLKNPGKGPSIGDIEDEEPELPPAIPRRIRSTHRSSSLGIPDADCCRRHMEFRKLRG
In words: HPK1-SLP76 TR-FRET assay. The experiment is classed as biochemical. Particulars: 75 pM HPK1, 10 uM ATP, 10 nM SLP76, 30 min compound pre-incubation.
As a reminder, the IC50 is the concentration that inhibits the measured activity by half. Higher therefore signals a need for much substance. `COc1cc2c(cc1Nc1ncc(C(N)=O)c(N[C@H]3CC[C@H](C)CC3)n1)CN(C)CC2` [Example 26-29, 2-[(6-methoxy-2-methyl-1,2,3,4-tetrahydroisoquinolin-7-yl)amino]-4-[(trans-4-methylcyclohexyl)amino]pyrimidine-5-carboxamide]: the half-maximal inhibitory concentration (IC50) amounted to 1.43 nM. As for `COc1cc2c(cc1Nc1ncc(C(N)=O)c(NC3C4CCC3CNC4)n1)CN(C)CC2` (stereo not shown) [Example 26-30, 4-[(3-azabicyclo[3.2.1]octan-8-yl)amino]-2-[(6-methoxy-2-methyl-1,2,3,4-tetrahydroisoquinolin-7-yl)amino]pyrimidine-5-carboxamide], the figure is 28.6 nM; as for `COc1cc2c(cc1Nc1ncc(C(N)=O)c(NC3CCC(OC)CC3)n1)CN(C)CC2` (stereo not shown) [Example 26-31, 4-[(4-methoxycyclohexyl)amino]-2-[(6-methoxy-2-methyl-1,2,3,4-tetrahydroisoquinolin-7-yl)amino]pyrimidine-5-carboxamide], 5.18 nM; as for `COc1cc2c(cc1Nc1ncc(C(N)=O)c(N[C@@H]3CCCC[C@H]3CO)n1)CN(C)CC2` [Example 26-32, 4-{[(1R,2R)-2-(hydroxymethyl)cyclohexyl]amino}-2-[(6-methoxy-2-methyl-1,2,3,4-tetrahydroisoquinolin-7-yl)amino]pyrimidine-5-carboxamide], 1.02 nM. As for `COc1cc2c(cc1Nc1ncc(C(N)=O)c(N[C@@H]3CCCC[C@H]3C(F)F)n1)CN(C)CC2` [Example 26-33, 4-{[(1R,2R)-2-(difluoromethyl)cyclohexyl]amino}-2-[(6-methoxy-2-methyl-1,2,3,4-tetrahydroisoquinolin-7-yl)amino]pyrimidine-5-carboxamide], the figure is 0.46 nM; as for `COc1cc2c(cc1Nc1ncc(C(N)=O)c(NC3CCc4cccc(OC)c43)n1)CN(C)CC2` (stereo not shown) [Example 26-34, 4-[(7-methoxy-2,3-dihydro-1H-inden-1-yl)amino]-2-[(6-methoxy-2-methyl-1,2,3,4-tetrahydroisoquinolin-7-yl)amino]pyrimidine-5-carboxamide], 9.66 nM. As for `COc1cc2c(cc1Nc1ncc(C(N)=O)c(NCc3cccc(C(F)(F)F)c3)n1)CN(C)CC2` [Example 26-35, 2-[(6-methoxy-2-methyl-1,2,3,4-tetrahydroisoquinolin-7-yl)amino]-4-({[3-(trifluoromethyl)phenyl]methyl}amino)pyrimidine-5-carboxamide], the figure is 52.8 nM. For the compound `COc1cc2c(cc1Nc1ncc(C(N)=O)c(NCc3ccccc3)n1)CN(C)CC2` [Example 26-36, 4-(benzylamino)-2-[(6-methoxy-2-methyl-1,2,3,4-tetrahydroisoquinolin-7-yl)amino]pyrimidine-5-carboxamide], the IC50 stood at 6.05 nM. As for `COc1cc2c(cc1Nc1ncc(C(N)=O)c(N[C@H]3CCc4ccccc43)n1)CN(C)CC2` [Example 26-37, 4-{[(1S)-2,3-dihydro-1H-inden-1-yl]amino}-2-[(6-methoxy-2-methyl-1,2,3,4-tetrahydroisoquinolin-7-yl)amino]pyrimidine-5-carboxamide], the figure is 0.38 nM; as for `COc1cc2c(cc1Nc1ncc(C(N)=O)c(NC3CCC(F)(F)C3)n1)CN(C)CC2` (stereo not shown) [Example 26-38, 4-[(3,3-difluorocyclopentyl)amino]-2-[(6-methoxy-2-methyl-1,2,3,4-tetrahydroisoquinolin-7-yl)amino]pyrimidine-5-carboxamide], 1.07 nM. The compound `C#C[C@H]1CC[C@@H](Nc2nc(Nc3cc4c(cc3OC)CCN(C)C4)ncc2C(N)=O)CC1` [Example 26-39, 4-[(cis-4-ethynylcyclohexyl)amino]-2-[(6-methoxy-2-methyl-1,2,3,4-tetrahydroisoquinolin-7-yl)amino]pyrimidine-5-carboxamide] displayed a half-inhibitory concentration (IC50) of 0.34 nM.

For the compound `C#CC[C@H]1CCC[C@H]1Nc1nc(Nc2cc3c(cc2OC)CCN(C)C3)ncc1C(N)=O` [Example 26-40, 2-[(6-methoxy-2-methyl-1,2,3,4-tetrahydroisoquinolin-7-yl)amino]-4-{[(1R,2R)-2-(prop-2-yn-1-yl)cyclopentyl]amino}pyrimidine-5-carboxamide], half-maximal inhibition (IC50) required 2.08 nM. In turn, `COc1cc2c(cc1Nc1ncc(C(N)=O)c(N[C@@H]3CCCC[C@@H]3C)n1)CN(C)CC2` [Example 26-41, 2-[(6-methoxy-2-methyl-1,2,3,4-tetrahydroisoquinolin-7-yl)amino]-4-{[(1R,2S)-2-methylcyclohexyl]amino}pyrimidine-5-carboxamide] showed an IC50 of 0.14 nM. Compared with the last compound, the IC50 is about 15-fold lower. As for `COc1cc2c(cc1Nc1ncc(C(N)=O)c(N[C@@H]3CCCC[C@H]3C(C)(C)O)n1)CN(C)CC2` [Example 26-42, 4-{[(1R,2R)-2-(2-hydroxypropan-2-yl)cyclohexyl]amino}-2-[(6-methoxy-2-methyl-1,2,3,4-tetrahydroisoquinolin-7-yl)amino]pyrimidine-5-carboxamide], the figure is 205 nM; as for `COc1cc2c(cc1Nc1ncc(C(N)=O)c(N[C@H](CO)c3ccccc3)n1)CN(C)CC2` [Example 26-43, 4-{[(1S)-2-hydroxy-1-phenylethyl]amino}-2-[(6-methoxy-2-methyl-1,2,3,4-tetrahydroisoquinolin-7-yl)amino]pyrimidine-5-carboxamide], 6.59 nM; as for `NC(=O)c1cnc(Nc2ccc3c(c2)COC3=O)nc1N[C@H](CO)c1ccccc1` [Example 26-44, 4-{[(1S)-2-hydroxy-1-phenylethyl]amino}-2-[(1-oxo-1,3-dihydro-2-benzofuran-5-yl)amino]pyrimidine-5-carboxamide], 92.1 nM. As for `COc1cc2c(cc1Nc1ncc(C(N)=O)c(NCc3c(F)ccc(F)c3F)n1)CN(C)CC2` [Example 26-45, 2-[(6-methoxy-2-methyl-1,2,3,4-tetrahydroisoquinolin-7-yl)amino]-4-{[(2,3,6-trifluorophenyl)methyl]amino}pyrimidine-5-carboxamide], the figure is 0.51 nM; as for `COc1cc2c(cc1Nc1ncc(C(N)=O)c(N[C@@H]3CCCc4cc(F)ccc43)n1)CN(C)CC2` [Example 26-46, 4-{[(1R)-6-fluoro-1,2,3,4-tetrahydronaphthalen-1-yl]amino}-2-[(6-methoxy-2-methyl-1,2,3,4-tetrahydroisoquinolin-7-yl)amino]pyrimidine-5-carboxamide], 29.7 nM; as for `COc1cc2c(cc1Nc1ncc(C(N)=O)c(N[C@H]3CCCc4cc(F)ccc43)n1)CN(C)CC2` [Example 26-47, 4-{[(1S)-6-fluoro-1,2,3,4-tetrahydronaphthalen-1-yl]amino}-2-[(6-methoxy-2-methyl-1,2,3,4-tetrahydroisoquinolin-7-yl)amino]pyrimidine-5-carboxamide], 3.01 nM. On to `COc1cc2c(cc1Nc1ncc(C(N)=O)c(N[C@H](CO)C3CCCCC3)n1)CN(C)CC2` [Example 26-48, 4-{[(1S)-1-cyclohexyl-2-hydroxyethyl]amino}-2-[(6-methoxy-2-methyl-1,2,3,4-tetrahydroisoquinolin-7-yl)amino]pyrimidine-5-carboxamide], for which it took 22.8 nM to reach half-maximal inhibition (IC50). This IC50 lies about 7.6-fold higher than the previous one.

`Cn1cc(Nc2ncc(C(N)=O)c(N[C@H](CO)C3CCCCC3)n2)cn1` [Example 26-49, 4-{[(1S)-1-cyclohexyl-2-hydroxyethyl]amino}-2-[(1-methyl-1H-pyrazol-4-yl)amino]pyrimidine-5-carboxamide]: the concentration for half-maximal inhibition (IC50) was 78.8 nM. As for `NC(=O)c1cnc(Nc2cnn(C3CCNCC3)c2)nc1NC1CCc2cc(F)c(F)cc21` (stereo not shown) [Example 26-50, 4-[(5,6-difluoro-2,3-dihydro-1H-inden-1-yl)amino]-2-{[1-(piperidin-4-yl)-1H-pyrazol-4-yl]amino}pyrimidine-5-carboxamide], the figure is 40.6 nM. As for `NC(=O)c1cnc(Nc2ccc3c(c2)CNCC3)nc1NC1CCc2cc(F)c(F)cc21` (stereo not shown) [Example 26-53, 4-[(5,6-difluoro-2,3-dihydro-1H-inden-1-yl)amino]-2-[(1,2,3,4-tetrahydroisoquinolin-7-yl)amino]pyrimidine-5-carboxamide], the figure is 0.23 nM; as for `CN1CCc2cc(F)c(Nc3ncc(C(N)=O)c(NC4CCc5cc(F)c(F)cc54)n3)cc2C1` (stereo not shown) [Example 26-54, 4-[(5,6-difluoro-2,3-dihydro-1H-inden-1-yl)amino]-2-[(6-fluoro-2-methyl-1,2,3,4-tetrahydroisoquinolin-7-yl)amino]pyrimidine-5-carboxamide], 0.97 nM. `COc1cc2c(cc1Nc1ncc(C(N)=O)c(NCc3ccncc3)n1)CN(C)CC2` [Example 26-55, 2-[(6-methoxy-2-methyl-1,2,3,4-tetrahydroisoquinolin-7-yl)amino]-4-{[(pyridin-4-yl)methyl]amino}pyrimidine-5-carboxamide] had an IC50 of 224 nM. The compound `COc1cc2c(cc1Nc1ncc(C(N)=O)c(NCc3cnc4ccccn34)n1)CN(C)CC2` [Example 26-56, 4-{[(imidazo[1,2-a]pyridin-3-yl)methyl]amino}-2-[(6-methoxy-2-methyl-1,2,3,4-tetrahydroisoquinolin-7-yl)amino]pyrimidine-5-carboxamide] showed a concentration for half-maximal inhibition (IC50) of 777 nM. In the case of `COc1cc2c(cc1Nc1ncc(C(N)=O)c(NCc3ccccc3O)n1)CN(C)CC2` [Example 26-57, 4-{[(2-hydroxyphenyl)methyl]amino}-2-[(6-methoxy-2-methyl-1,2,3,4-tetrahydroisoquinolin-7-yl)amino]pyrimidine-5-carboxamide], half-maximal inhibition (IC50) required 3.19 nM. Regarding `COc1cc2c(cc1Nc1ncc(C(N)=O)c(NCc3cccc(C#N)c3)n1)CN(C)CC2` [Example 26-58, 4-{[(3-cyanophenyl)methyl]amino}-2-[(6-methoxy-2-methyl-1,2,3,4-tetrahydroisoquinolin-7-yl)amino]pyrimidine-5-carboxamide], the midpoint of inhibition, the IC50, lay at 9.83 nM.

Source of the values: US20230416225A1, “DIAMINOPYRIMIDINE CARBOXAMIDE INHIBITORS OF HPK1” (MERCK SHARP & DOHME LLC, priority 2020, published 2023).
